Data: PMC10138577, “Prenylated Flavonoids with Selective Toxicity against Human Cancers” (International Journal of Molecular Sciences, 2023)

Test system: breast cancer cell lines MCF-7, SK-BR-3, T47D
Assay: Selectivity towards all breast cancer cell lines tested (SRB)
Assay type: cell-based, human
Settings: IC50 BALB/3T3/IC50 of MCF-7, SK-BR-3, T47D
Procedure: The selective effect of a drug can be expressed by the selectivity index (SI), which is determined by comparing the cytotoxic activity of each compound against each cancer cell line with the activity against a normal cell line. The SI was calculated as the IC50 ratio for a normal cell line (SIA—HLMEC; SIB—BALB/3T3) to the IC50 value for the corresponding tumor cell line using the following equation:(1) SI=IC50 for normal cell line/IC50 for cancerous cell line […]
The details of this technique were described by Skehan et al.. […] The unbound dye was removed by washing the plates five times with 1% acetic acid, whereas the stain bound to the cells was extracted with 150 µL of 10 mM unbuffered Tris base for determination of the optical density at a 540 nm wavelength in a computer-interfaced, 96-well microtiter plate reader–Multiskan FC photometer (Thermo Scientific, Waltham, MA, USA). The background optical density was measured in the wells filled with culture medium, without the cells. […]

With COc1cc(O)c(CC=C(C)C)c2c1C(=O)/C(=C/c1ccc(O)cc1)O2 [compound 2, (Z)-6,4′-dihydroxy-4-methoxy-7-prenylaurone] the “selectivity index SIB, range over breast cancer cell lines” value was 3.93–5.50.
